Data: patent US10517889B2, “Modulators of SMAD7 expression” (Ionis Pharmaceuticals, Inc., priority 2017, dated 2019)
Strand notation (5' to 3'): a small letter for the sugar, then the base; units joined by * are phosphorothioate-linked, units joined directly phosphodiester-linked; [ ] holds rarer units or linkages, { } end groups; capitals alone tell only the bases. k = constrained ethyl (cEt); [5mC] = 5-methylcytosine; d = 2'-deoxy (DNA)

system: human SMAD7 mRNA; assay: Antisense inhibition of human SMAD7 mRNA expression in Hep3B cells by 3-10-3 cEt gapmers, 10,000 nM, electroporation (Example 2); type: cell-based; settings: Hep3B cells, 10,000 nM antisense oligonucleotide, electroporation, approximately 24 hours, RT-PCR primer probe set RTS5062, relative to untreated control cells
In short: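 Hep3B cells (20,000/well) were electroporated with 10,000 nM 3-10-3 cEt gapmer (16-mer, phosphorothioate, 5-methylcytosines) and harvested after about 24 h. SMAD7 mRNA quantified by RT-qPCR with primer probe set RTS5062, normalized to total RNA by RiboGreen; percent inhibition relative to untreated cells.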

Substance	% Inhibition
798889 (k[5mC]*kA*k[5mC]*dA*dA*dA*dG*d[5mC]*dT*dG*dA*dT*d[5mC]*kT*kG*k[5mC]; antisense) [compound 798889]	0%
800097 (antisense kG*k[5mC]*k[5mC]*dT*d[5mC]*dA*dA*dA*dA*dA*dG*d[5mC]*d[5mC]*kT*k[5mC]*kA) [compound 800097]	1%
798914 (kG*kT*k[5mC]*d[5mC]*d[5mC]*d[5mC]*dT*d[5mC]*d[5mC]*dG*d[5mC]*dA*d[5mC]*kG*k[5mC]*kG; antisense) [compound 798914]	56%
790847 (kT*k[5mC]*kT*dT*dA*d[5mC]*dA*dA*dA*dG*dA*dG*dT*kT*kA*kT; antisense) [compound 790847]	24%

same assay, conditions: Hep3B cells, electroporation with 10,000 nM antisense oligonucleotide, approximately 24 hours, RTS5062, percent inhibition of SMAD7 mRNA relative to untreated control cells

Substance	% Inhibition
799276 (antisense kG*kG*k[5mC]*dA*dG*d[5mC]*d[5mC]*dA*dG*dT*dT*dA*dA*kT*k[5mC]*kA) [compound 799276]	29%
799297 (antisense kA*kA*kA*dG*dG*d[5mC]*dT*dG*dA*d[5mC]*dT*d[5mC]*dG*k[5mC]*kG*kG) [compound 799297]	62%
799766 (kA*kA*kA*d[5mC]*dA*dA*dA*dG*d[5mC]*dA*d[5mC]*dG*d[5mC]*kT*kA*kA; antisense) [compound 799766]	35%
799588 (kA*kA*kA*dA*dA*dG*d[5mC]*d[5mC]*d[5mC]*dA*d[5mC]*d[5mC]*d[5mC]*kA*kT*k[5mC]; antisense) [compound 799588]	44%
799803 (kA*kG*kA*dA*dG*dG*dA*dT*dG*dA*dA*dT*dG*kT*kG*kA; antisense) [compound 799803]	10%
799296 (antisense kG*k[5mC]*kT*dG*dA*d[5mC]*dT*d[5mC]*dG*d[5mC]*dG*dG*d[5mC]*k[5mC]*kT*kT) [compound 799296]	45%

same assay, conditions: Hep3B cells, electroporation with 10,000 nM antisense oligonucleotide, approximately 24 hours, SMAD7 mRNA by RT-PCR (RTS5062), relative to untreated control cells

Substance	% Inhibition
798718 (antisense kA*kT*k[5mC]*d[5mC]*dA*dG*d[5mC]*d[5mC]*d[5mC]*dT*dG*d[5mC]*d[5mC]*k[5mC]*kG*kG) [compound 798718]	37%
830105 (kT*kT*kA*dA*dG*d[5mC]*d[5mC]*d[5mC]*dG*d[5mC]*dT*d[5mC]*dT*k[5mC]*kA*kG; antisense) [compound 830105]	48%
800085 (antisense kA*kG*k[5mC]*dA*dG*d[5mC]*d[5mC]*d[5mC]*dT*dG*dT*dA*d[5mC]*kA*k[5mC]*kA) [compound 800085]	37%
799334 (k[5mC]*k[5mC]*kG*dT*dA*dG*dA*d[5mC]*d[5mC]*d[5mC]*d[5mC]*dT*dT*k[5mC]*kG*kG; antisense) [compound 799334]	21%
830072 (kA*kT*k[5mC]*dA*dA*dA*dG*dG*dT*dA*dA*dG*d[5mC]*k[5mC]*kA*kG; antisense) [compound 830072]	28%
799491 (antisense kG*kG*k[5mC]*dA*dG*dG*d[5mC]*dA*dG*dG*dA*dA*dA*kT*kG*kG) [compound 799491]	38%

same assay, conditions: Hep3B cells, electroporation with 10,000 nM antisense oligonucleotide, approximately 24 hours, primer probe set RTS5062, relative to untreated control cells

Substance	% inhibition of SMAD7 mRNA expression	% Inhibition
799150 (antisense k[5mC]*kT*kA*dG*dG*dA*dT*dG*dG*dT*dA*d[5mC]*d[5mC]*kT*kT*kG) [compound 799150]	22%	–
798791 (k[5mC]*kA*kT*d[5mC]*dG*dG*dG*dT*dA*dT*d[5mC]*dT*dG*kG*kA*kG; antisense) [compound 798791]	25%	–
799344 (k[5mC]*k[5mC]*k[5mC]*dA*d[5mC]*dT*dA*dA*dT*d[5mC]*dT*dA*d[5mC]*kA*kG*kA; antisense) [compound 799344]	34%	–
798703 (antisense kG*kT*k[5mC]*d[5mC]*dG*dT*d[5mC]*dG*d[5mC]*d[5mC]*d[5mC]*d[5mC]*dT*kT*k[5mC]*kT) [compound 798703]	68%	–
798940 (antisense kA*kA*kA*dA*d[5mC]*dG*dA*d[5mC]*d[5mC]*dA*dA*dA*dG*kA*kG*kT) [compound 798940]	–	29%
799026 (k[5mC]*k[5mC]*kG*d[5mC]*dT*dT*dG*dG*dG*dA*d[5mC]*dT*dG*k[5mC]*kA*kA; antisense) [compound 799026]	1%	–
799162 (antisense kT*kA*kT*d[5mC]*dA*dT*dA*d[5mC]*dG*dA*dG*dT*dG*kT*kA*kT) [compound 799162]	–	36%
799481 (antisense k[5mC]*kT*k[5mC]*d[5mC]*dA*d[5mC]*dA*d[5mC]*dA*dG*dG*d[5mC]*dA*kA*k[5mC]*k[5mC]) [compound 799481]	34%	–
798973 (antisense kT*k[5mC]*k[5mC]*dT*dA*dT*d[5mC]*dA*dG*dG*dG*dT*dG*kT*k[5mC]*k[5mC]) [compound 798973]	–	30%
799121 (antisense k[5mC]*k[5mC]*kT*dA*dA*dT*dA*dG*d[5mC]*dA*dG*dA*dG*k[5mC]*kT*kT) [compound 799121]	–	25%
798674 (antisense k[5mC]*kA*kG*dG*d[5mC]*dG*dA*d[5mC]*dA*dG*d[5mC]*dA*dG*k[5mC]*kA*kG) [compound 798674]	39%	–
799384 (antisense kG*kG*k[5mC]*dA*d[5mC]*dA*dA*dA*dA*dA*d[5mC]*d[5mC]*dA*kA*kG*kG) [compound 799384]	40%	–
799327 (kG*k[5mC]*kA*d[5mC]*dA*d[5mC]*dT*d[5mC]*dT*d[5mC]*d[5mC]*d[5mC]*dA*kG*kG*kA; antisense) [compound 799327]	52%	–
799036 (kA*kG*k[5mC]*d[5mC]*dG*d[5mC]*d[5mC]*dA*dG*d[5mC]*dT*dT*dG*k[5mC]*k[5mC]*k[5mC]; antisense) [compound 799036]	–	8%
799218 (k[5mC]*kA*kT*dT*dT*dG*dT*dT*dA*dT*dT*dT*dG*k[5mC]*kA*kT; antisense) [compound 799218]	0%	–
798810 (kA*kA*kG*dT*dT*dG*dG*dG*dA*dA*dT*d[5mC]*dT*kG*kA*kA; antisense) [compound 798810]	0%	–
799217 (kG*kT*kT*dA*dT*dT*dT*dG*d[5mC]*dA*dT*dT*dT*kA*kT*kA; antisense) [compound 799217]	0%	–

same assay, conditions: Hep3B cells, electroporation, 10,000 nM antisense oligonucleotide, approximately 24 hours, RTS5062, relative to untreated control cells

Substance	% inhibition of SMAD7 mRNA expression
799319 (antisense kT*kG*k[5mC]*dT*dG*dT*dG*dG*dA*dT*dT*dT*dG*kA*kA*kA) [compound 799319]	0%
799618 (kA*kA*k[5mC]*dA*dA*dA*dG*d[5mC]*dT*dG*d[5mC]*dA*dA*kT*kG*k[5mC]; antisense) [compound 799618]	0%
799836 (antisense kA*kG*kA*dT*dA*dT*d[5mC]*dG*dG*d[5mC]*d[5mC]*d[5mC]*d[5mC]*k[5mC]*kT*kG) [compound 799836]	61%
799778 (kG*k[5mC]*kA*d[5mC]*dA*d[5mC]*d[5mC]*dT*dT*d[5mC]*d[5mC]*dA*dA*kG*k[5mC]*kA; antisense) [compound 799778]	10%
799516 (antisense k[5mC]*kA*k[5mC]*d[5mC]*dA*dG*dA*dT*d[5mC]*dA*dA*dG*dA*k[5mC]*kA*kG) [compound 799516]	0%
799777 (kA*kG*kT*d[5mC]*dA*dG*d[5mC]*d[5mC]*dA*dG*dA*dA*dG*kG*kA*k[5mC]; antisense) [compound 799777]	34%
799601 (kG*kA*kA*dT*dA*d[5mC]*dA*d[5mC]*dT*dG*d[5mC]*dA*d[5mC]*k[5mC]*kA*kA; antisense) [compound 799601]	48%

same assay, conditions: SMAD7 mRNA, Hep3B cells, 10,000 nM antisense oligonucleotide, electroporation, approximately 24 hours, primer probe set RTS5062, relative to untreated control cells

Substance	% Inhibition
800776 (antisense kG*kA*kG*dG*d[5mC]*dA*d[5mC]*dG*d[5mC]*dG*dG*dT*dG*k[5mC]*kG*k[5mC]) [compound 800776]	36%
800861 (antisense k[5mC]*k[5mC]*kA*dG*dT*dT*dG*dG*dT*dT*dT*dG*dA*kG*kA*kA) [compound 800861]	32%
829728 (antisense kG*kG*k[5mC]*dG*d[5mC]*dA*dG*dG*d[5mC]*dG*dA*d[5mC]*dA*kG*k[5mC]*kA) [compound 829728]	44%
800843 (antisense kT*k[5mC]*kG*dG*d[5mC]*d[5mC]*dA*d[5mC]*dA*d[5mC]*dA*d[5mC]*d[5mC]*kT*k[5mC]*kA) [compound 800843]	32%

same assay, conditions: SMAD7 mRNA, Hep3B cells, electroporation with 10,000 nM antisense oligonucleotide, approximately 24 hours, primer probe set RTS5062, relative to untreated control cells

Substance	% Inhibition
829841 (kT*kG*kG*dA*d[5mC]*dA*d[5mC]*dA*dG*dT*dA*dG*dA*kG*k[5mC]*k[5mC]; antisense) [compound 829841]	50%
829983 (kG*kG*k[5mC]*dG*dG*dT*dG*dA*dT*dT*dG*d[5mC]*d[5mC]*kT*kT*kG; antisense) [compound 829983]	43%
829997 (kG*kT*kT*dT*dG*dT*d[5mC]*dT*dT*dA*dG*d[5mC]*dT*kG*kT*kG; antisense) [compound 829997]	21%
829882 (antisense kA*kG*kG*d[5mC]*dT*dG*dT*dA*d[5mC]*dG*d[5mC]*d[5mC]*dT*kT*k[5mC]*kT) [compound 829882]	3%
829971 (kG*k[5mC]*k[5mC]*dA*d[5mC]*dA*d[5mC]*dA*d[5mC]*d[5mC]*dT*d[5mC]*dA*kA*k[5mC]*kG; antisense) [compound 829971]	20%
